# What was measured:
# [1] = tested on: IFN-α mRNA in LLC and H1650 cells; assay: IFN-α qRT-PCR; format: cell-based, mouse (LLC), human (H1650)
# Description: ROS is the main regulator of WFA-induced PD-L1 upregulation. […] All cells were treated with 0.6 μM WFA except A549, 4t1 and MDA-MB-231 cells which were treated with 4 μM, 1 μM, 2 μM WFA, respectively. […] PCR experiments were repeated twice, and one representative experiment is shown as mean±SEM of 3 technical replicates. Flow cytometry experiments were performed twice and the mean±SEM of two representative experiments is shown. Treatments were compared to the control using one-way ANOVA and Fisher LSD post hoc test. * p<0.05, ** p<0.01, *** p<0.001, **** p<0.0001.
# (§1) Total cellular RNA was isolated from collected cell pellets using TRIzol reagent (Invitrogen, Waltham, MA, USA) and then quantified using the 2000 Nanodrop spectrophotometer (Thermo Fisher Scientific, Waltham, MA, USA). cDNA synthesis was performed using the Verso cDNA synthesis kit (Thermo Fisher Scientific, Waltham, MA, USA). qPCR was then performed using Forget-Me-Not EvaGreen qPCR Master Mix (Biotium, Fremont, CA, USA) in a Bio-Rad CFX384 thermocycler according to the manufacturer's instructions. The CFX Maestro software version 2.3 (Bio-Rad, Hercules, CA, USA) was used to calculate the ΔCt and ΔΔCt values and gene expression was normalized to housekeeping genes glyceraldehyde 3-phosphate dehydrogenase (GAPDH) or β-actin. […]
# [2] = tested on: PD-L1 expression in LLC, H1650, and A549 cell lines; assay: PD-L1 expression in NSCLC cell lines (flow cytometry, qRT-PCR, western blot); format: cell-based, mouse (LLC), human (H1650
# Description: FIGS. 3A-3F depict that WFA upregulates PD-L1 surface expression in NSCLC cell lines. Cells were treated with WFA for 48 h. (FIGS. 3A, 3C, 3E) PD-L1 surface expression determined using flow cytometry LLC (FIG. 3A), H1650 (FIG. 3C), and A549 (FIG. 3E). (FIGS. 3B, 3D, 3F) PD-L1 expression was measured using qRT-PCR LLC (FIG. 3B), H1650 (FIG. 3D), A549 (FIG. 3F). PCR experiments were repeated twice and the mean±SEM of the technical replicates are represented. For the rest, the means of two independent experiments ±SEM are shown, and statistical significance was calculated using one-way ANOVA and a Fisher LSD post hoc test where * is p<0.05, ** is p<0.01, and **** is p <0.0001.
# FIGS. 8A-8G depict that WFA induced ICD and PD-L1 upregulation in colorectal cancer cell lines. WFA increased the levels of ecto-CRT in the murine colorectal cancer cell line (FIG. 8A) MC-38 and human cell line (FIG. 8B) HCT-116. WFA increased the expression of PD-L1 in both (FIG. 8C) MC-38 and (FIG. 8D) HCT-116 cells. […] H1650 cells (at a higher density) were treated with a higher concentration of WFA (2 and 4 μM) to facilitate cell collection and protein isolation. The band density was quantified using Image J software and normalized to the housekeeping protein. The fold change from untreated control was averaged from two independent experiments ±SEM and one-way ANOVA was used to calculate the statistical significance. A Fisher LSD post hoc test was performed to compare the treatments to the control in (FIG. 8E) LLC, (FIG. 8F) H1650, (FIG. 8G) A549 cells. * p<0.05, ** p<0.01, *** p<0.001, **** p<0.0001. […]
# as §1, with “instructions.” for “instructions. The CFX Maestro software version 2.3 (Bio-Rad, Hercules, CA, USA) was used to calculate the ΔCt and ΔΔCt values and gene expression was normalized to housekeeping genes glyceraldehyde 3-phosphate dehydrogenase (GAPDH) or β-actin.”
structure (smiles),measurement,setting,value
"CC1=C(CO)C(=O)O[C@@H]([C@@H](C)[C@H]2CC[C@H]3[C@@H]4C[C@H]5O[C@]56[C@@H](O)C=CC(=O)[C@]6(C)[C@H]4CC[C@]23C)C1 [WFA, Withaferin A]",IFN-α mRNA,[1],increased
same,PD-L1 surface expression,"[2]; flow cytometry, 48 h, LLC, H1650, A549",consistently increased
same,PD-L1 expression (mRNA),[2]; qRT-PCR,induced
same,PD-L1 expression (protein),[2]; western blotting,induced

# — patent US20240293430A1, “WITHAFERIN A AND IMMUNE CHECKPOINT BLOCKER COMBINATION THERAPIES” (University of South Florida, priority 2023, published 2024)
